Activity calls are given as the source filed them. The rule behind the calls is not given here.
Assays:
[1] = (§1) Cytotoxicity against rat H9c2 cells assessed as reduction in cell viability measured after 72 hrs by resazurin due based analysis; assay type: toxicity; conditions: rat, H9c2 cells
[2] = Selectivity index, ratio of CC50 for cytotoxicity against rat H9c2 cells to IC50 for antitrypanosomal activity against epimastigote form of Trypanosoma cruzi Y; assay type: toxicity, cell-based; conditions: read-out: Ratio IC50
[3] = molecular target: Cruzipain (Trypanosoma cruzi) (UniProt P25779); test: Inhibition of recombinant Trypanosoma cruzi Cruzain using Z-FR-AMC as substrate at 100 uM measured for 5 mins by fluorescence based analysis
Trypanosoma cruzi [4] = test: Antitrypanosomal activity against epimastigote form of Trypanosoma cruzi Y assessed as inhibition of parasite proliferation incubated for 72 hrs by resazurin dye based analysis; assay type: functional, organism-based
[5] = molecular target: Cruzipain (Trypanosoma cruzi) (UniProt P25779); test: Inhibition of recombinant Trypanosoma cruzi Cruzain using Z-FR-AMC as substrate at 100 uM preincubated with enzyme for 10 mins and measured for 5 mins by fluorescence based analysis; conditions: time 15.0 min
Trypanosoma cruzi [6] = test: Antitrypanosomal activity against trypomastigote form of Trypanosoma cruzi Y assessed as inhibition of parasite viability incubated for 24 hrs by light microscopy; assay type: functional, organism-based
Trypanosoma cruzi [7] = test: Anti-trypanosomal activity against trypomastigote form of Trypanosoma cruzi Y infected in Swiss mouse assessed as reduction in parasitemia at 10 to 100 mg/kg, po administered via gavage for 7 days from day 5 post-infection; assay type: functional, organism-based; conditions: dose 10-100 mg/kg, time 7.0 day
[8] = Toxicity in Swiss mouse infected with trypomastigote form of Trypanosoma cruzi Y assessed as increase in weight gain at 10 to 100 mg/kg, po administered via gavage for 7 days from day 5 post-infection; assay type: organism-based; conditions: in vivo, 168 h, dose 10-100 mg/kg, time 7 day
[9] = Toxicity in po dosed Swiss mouse infected with trypomastigote form of Trypanosoma cruzi Y assessed as diarrhea administered via gavage for 7 days from day 5 post-infection and measured on day 13 post-infection; assay type: organism-based; conditions: in vivo, 192 h, time 8 day
[10] = Toxicity in po dosed Swiss mouse infected with trypomastigote form of Trypanosoma cruzi Y assessed as apathy administered via gavage for 7 days from day 5 post-infection and measured on day 13 post-infection; assay type: organism-based; conditions: in vivo, 192 h, time 8 day
[11] = Hepatotoxicity in Swiss mouse infected with trypomastigote form of Trypanosoma cruzi Y assessed as plasma alanine aminotransferase level at 50 to 100 mg/kg, po administered via gavage for 7 days from day 5 post-infection by spectrophotometry; assay type: toxicity, organism-based; conditions: in vivo, 168 h, dose 50-100 mg/kg, time 7 day
[12] = Toxicity in po dosed Swiss mouse infected with trypomastigote form of Trypanosoma cruzi Y assessed as mortality administered via gavage for 7 days from day 5 post-infection and measured on day 13 post-infection; assay type: organism-based; conditions: in vivo, 192 h, time 8 day
[13] = Hepatotoxicity in Swiss mouse infected with trypomastigote form of Trypanosoma cruzi Y assessed as plasma aspartate aminotransferase level at 50 to 100 mg/kg, po administered via gavage for 7 days from day 5 post-infection by spectrophotometry; assay type: toxicity, organism-based; conditions: in vivo, 168 h, dose 50-100 mg/kg, time 7 day
[14] = Toxicity in po dosed Swiss mouse infected with trypomastigote form of Trypanosoma cruzi Y assessed as bristly fur administered via gavage for 7 days from day 5 post-infection and measured on day 13 post-infection; assay type: organism-based; conditions: in vivo, 192 h, time 8 day
H9c2 = test: as §1; assay type: toxicity; conditions: h9c2
Mus musculus [15] = test: Reduction in plasma IgG1 level in Swiss mouse infected with trypomastigote form of Trypanosoma cruzi Y at 100 mg/kg, po administered via gavage for 7 days from day 5 post-infection by ELISA; assay type: functional, organism-based; conditions: time 7.0 day
Trypanosoma cruzi [16] = test: Anti-trypanosomal activity against trypomastigote form of Trypanosoma cruzi Y infected in Swiss mouse assessed as reduction in parasitemia at 100 mg/kg, po administered via gavage for 2 days from day 5 post-infection; assay type: functional; conditions: 48 h, time 2 day
Mus musculus [17] = test: Reduction in plasma total IgG level in Swiss mouse infected with trypomastigote form of Trypanosoma cruzi Y at 100 mg/kg, po administered via gavage for 7 days from day 5 post-infection by ELISA; assay type: functional, organism-based; conditions: time 7.0 day
Mus musculus [18] = test: Reduction in plasma IgG2 level in Swiss mouse infected with trypomastigote form of Trypanosoma cruzi Y at 100 mg/kg, po administered via gavage for 7 days from day 5 post-infection by ELISA; assay type: functional, organism-based; conditions: time 7.0 day
Trypanosoma cruzi [19] = test: Anti-trypanosomal activity against trypomastigote form of Trypanosoma cruzi Y infected in Swiss mouse assessed as reduction in parasitemia at 100 mg/kg, po administered via gavage for 7 days from day 5 post-infection; assay type: functional; conditions: 168 h, time 7 day
Mus musculus [20] = test: Reduction in plasma IgG1 level in Swiss mouse infected with trypomastigote form of Trypanosoma cruzi Y at 10 to 50 mg/kg, po administered via gavage for 7 days from day 5 post-infection by ELISA; assay type: functional, organism-based; conditions: dose 10-50 mg/kg, time 7.0 day
Mus musculus [21] = test: Reduction in plasma total IgG level in Swiss mouse infected with trypomastigote form of Trypanosoma cruzi Y at 10 to 50 mg/kg, po administered via gavage for 7 days from day 5 post-infection by ELISA; assay type: functional, organism-based; conditions: dose 10-50 mg/kg, time 7.0 day
[22] = Genotoxicity in rat H9c2 cells assessed as induction of DNA damage at 10 uM incubated for 72 hrs by gel electrophoresis analysis; assay type: toxicity, cell-based; conditions: h9c2, 72 h
Mus musculus [23] = test: Reduction in plasma IgG2 level in Swiss mouse infected with trypomastigote form of Trypanosoma cruzi Y at 10 to 50 mg/kg, po administered via gavage for 7 days from day 5 post-infection by ELISA; assay type: functional, organism-based; conditions: dose 10-50 mg/kg, time 7.0 day
[24] = Toxicity in Swiss mouse infected with trypomastigote form of Trypanosoma cruzi Y assessed as collateral effects at 10 to 100 mg/kg, po administered via gavage for 7 days from day 5 post-infection; assay type: organism-based; conditions: in vivo, 168 h, dose 10-100 mg/kg, time 7 day
Trypanosoma cruzi [25] = test: Anti-trypanosomal activity against trypomastigote form of Trypanosoma cruzi Y infected in Swiss mouse assessed as reduction in parasitemia at 50 mg/kg, po administered via gavage for 7 days from day 5 post-infection; assay type: functional, organism-based; conditions: time 7.0 day
Mus musculus [26] = test: Reduction in cardiac inflammation in Swiss mouse infected with trypomastigote form of Trypanosoma cruzi Y assessed as reduction in inflammatory nuclei at 10 to 100 mg/kg, po administered via gavage for 7 days from day 5 post-infection by Hematoxylin-Eosin staining based microscopy; assay type: functional, organism-based; conditions: dose 10-100 mg/kg, time 7.0 day
[27] = Toxicity in po dosed Swiss mouse infected with trypomastigote form of Trypanosoma cruzi Y assessed as fur alteration administered via gavage for 7 days from day 5 post-infection and measured on day 13 post-infection; assay type: organism-based; conditions: in vivo, 192 h, time 8 day
Trypanosoma cruzi [28] = test: Anti-trypanosomal activity against epimastigote form of Trypanosoma cruzi by resazurin microtiter assay; assay type: functional, organism-based
Trypanosoma cruzi [29] = test: Anti-trypanosomal activity against trypomastigote form of Trypanosoma cruzi Y infected in mouse assessed as reduction in parasitemia at 100 mg/kg, po for 7 days; assay type: functional; conditions: 168 h, time 7 day

Sequence of Cruzipain (Trypanosoma cruzi) (P25779 123-467 limits assumed): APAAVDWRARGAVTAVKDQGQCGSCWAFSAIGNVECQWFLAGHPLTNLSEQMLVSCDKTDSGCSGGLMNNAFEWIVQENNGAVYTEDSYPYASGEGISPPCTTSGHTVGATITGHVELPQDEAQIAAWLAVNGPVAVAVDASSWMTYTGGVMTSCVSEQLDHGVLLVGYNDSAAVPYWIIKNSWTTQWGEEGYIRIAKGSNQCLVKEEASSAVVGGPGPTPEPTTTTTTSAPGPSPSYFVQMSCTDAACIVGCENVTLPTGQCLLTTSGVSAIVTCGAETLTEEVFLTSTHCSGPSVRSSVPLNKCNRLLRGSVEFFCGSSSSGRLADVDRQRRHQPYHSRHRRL

| SMILES | IC50 at 72 h [1] | selectivity ratio [2] | inhibition [3] | IC50 (Trypanosoma cruzi [4]) | inhibition [5] | further results |
| --- | --- | --- | --- | --- | --- | --- |
| C=CCc1ccc(OCC(O)Cn2cc(COc3ccc(Cl)cc3)nn2)c(OC)c1 (racemic) | 58.1 µM | 1.5 | 7.2% | 37 µM | 7.2% |  |
| CCCc1ccc(OCC(Cn2cc(-c3ccccc3)nn2)OCc2ccccc2)c(OC)c1 (racemic) | > 400 µM | > 1.1 | 7.2% | 335 µM | 7.2% |  |
| C=CCc1ccc(OCC(O)Cn2cc(COc3ccc([N+](=O)[O-])cc3)nn2)c(OC)c1 (racemic) | 323 µM | 2.1 | 7.2% | 149 µM | 7.2% |  |
| COc1ccccc1OCC(O)Cn1cc(COc2ccc([N+](=O)[O-])cc2)nn1 (racemic) | 134 µM | 2.1 | 7.2% | 60.8 µM | 7.2% |  |
| CCCc1ccc(OCC(O)Cn2cc(COc3ccc(Cl)cc3)nn2)c(OC)c1 (racemic) | 132 µM | 6.6 | 29.3% | 19.7 µM | 29.3% | IC50 (Trypanosoma cruzi [6]): 20.7 µM; Activity (Trypanosoma cruzi [7]): inactive; Activity [8]: Non-Toxic; Activity [9]: Non-Toxic; Activity [10]: Non-Toxic; Activity [11]: Non-Toxic; Activity [12]: Non-Toxic; Activity [13]: Non-Toxic; Activity [14]: Toxic |
| COc1ccccc1OCC(O)Cn1cc(COc2ccccc2)nn1 (racemic) | 437 µM | 3.8 | 7.2% | 112 µM | 7.2% |  |
| CCCc1ccc(OCC(O)Cn2cc(COc3ccc(C(C)C)cc3)nn2)c(OC)c1 (racemic) | 302 µM | 7.3 | 7.2% | 41.1 µM | 7.2% |  |
| COc1ccccc1OCC(O)Cn1cc(COc2ccc(Cl)cc2)nn1 (racemic) | 380 µM | 3.1 | 7.2% | 121 µM | 7.2% |  |
| C=CCc1ccc(OCC(O)Cn2cc(COc3ccc(OC)cc3)nn2)c(OC)c1 (racemic) |  | 8.9 | 7.2% | 190 µM | 7.2% | IC50 (H9c2): 1.69 mM |
| CCCc1ccc(OCC(Cn2cc(-c3ccccc3)nn2)OC)c(OC)c1 (racemic) | 555 µM | 2.8 | 7.2% | 198 µM | 7.2% |  |
| CCCc1ccc(OCC(O)Cn2cc(COc3ccc(OC)cc3)nn2)c(OC)c1 (racemic) | 315 µM | 9.1 | 7.2% | 34.4 µM | 7.2% |  |
| CCCc1ccc(OCC(O)Cn2ccnn2)c(OC)c1 (racemic) | 743 µM | 3.5 | 7.2% | 212 µM | 7.2% |  |
| O=C(Cn1ccnc1[N+](=O)[O-])NCc1ccccc1 [BENZNIDAZOLE] |  | 78.4 |  | 21.5 µM |  | IC50 (Trypanosoma cruzi [6]): 12.7 µM; IC50 (H9c2): 1.69 mM; inhibition (Mus musculus [15]): Active; inhibition in vivo at 100 mg/kg (Trypanosoma cruzi [16]): 100%; inhibition (Mus musculus [17]): Active; inhibition (Mus musculus [18]): Active |
| COc1ccccc1OCC(O)Cn1cc(COc2ccc(C(C)C)cc2)nn1 (racemic) |  |  | 7.2% | 64.3 µM | 7.2% |  |
| COc1ccccc1OCC(O)Cn1cc(-c2ccccc2)nn1 (racemic) | 422 µM | 3.3 | 7.2% | 126 µM | 7.2% |  |
| C=CCc1ccc(OCC(O)Cn2cc(COc3ccc(C(C)C)cc3)nn2)c(OC)c1 (racemic) | 480 µM | 0.5 | 7.2% | 826 µM | 7.2% |  |
| CCCc1ccc(OCC(O)Cn2cc(COc3ccc([N+](=O)[O-])cc3)nn2)c(OC)c1 (racemic) | 568 µM | 77.6 | 24% | 7.3 µM | 24% | inhibition in vivo at 100 mg/kg (Trypanosoma cruzi [19]): 99.4%; IC50 (Trypanosoma cruzi [6]): 8.41 µM; inhibition (Mus musculus [15]): Active; Activity [8]: Toxic; Activity [9]: Non-Toxic; inhibition (Mus musculus [20]): inactive; inhibition (Mus musculus [21]): inactive; Activity [22]: Non-Toxic; inhibition (Mus musculus [23]): inactive; inhibition (Mus musculus [17]): Active; Activity [10]: Non-Toxic; Activity [24]: Non-Toxic; Activity [11]: Non-Toxic; Activity (Trypanosoma cruzi [25]): Active; Activity [12]: Non-Toxic; inhibition (Mus musculus [18]): Active; inhibition (Mus musculus [26]): Active; Activity [13]: Non-Toxic; Activity [27]: Non-Toxic |
| COc1ccc(OCc2cn(CC(O)COc3ccccc3OC)nn2)cc1 (racemic) | 469 µM | 4.1 | 7.2% | 113 µM | 7.2% |  |
| CCCc1ccc(OCC(O)Cn2cc(COc3ccccc3)nn2)c(OC)c1 (racemic) | 211 µM | 2.7 | 7.2% | 75.8 µM | 7.2% |  |
| CCCc1ccc(OCC(=O)Cn2cc(-c3ccccc3)nn2)c(OC)c1 |  | 1.9 | 7.2% | 558 µM | 7.2% | IC50 (H9c2): 1.07 mM |
| CCCc1ccc(OCC(O)Cn2cc(-c3ccccc3)nn2)c(OC)c1 (racemic) | 16.8 µM | 0.3 | 17% | 53.7 µM | 17% | IC50 (Trypanosoma cruzi [28]): 42.8 µM; inhibition in vivo at 100 mg/kg (Trypanosoma cruzi [29]): 50% |
| C=CCc1ccc(OCC(O)Cn2cc(COc3ccccc3)nn2)c(OC)c1 (racemic) | 410 µM | 1.6 | 7.2% | 256 µM | 7.2% |  |

— ChEMBL document CHEMBL5620433, “Design and synthesis of new 1,2,3-triazoles derived from eugenol and analogues with in vitro and in vivo activity against Trypanosoma cruzi” (Eur J Med Chem, 2023)
